Data set [1] can be described thus: Solubility in solvents of various compositions. Type of data set: physicochemical. From the text: Further, it was confirmed that the compound of Formula 1 has the property of reducing the pH of a solution while being dissolved in a solvent.
Another data set relates to caspase. Put plainly: Caspase inhibitory activity. Particulars: form present in aqueous solution. The format is biochemical.
Data set [2] in a line: Conversion from compound of Formula 2 to compound of Formula 3 according to pH of solvent. The format is physicochemical.

“Also recorded” adds a separate entry of the source.

As to `CC(C)[C@@]1(C(=O)NC2CC(=O)OC2(O)CF)CC(c2nccc3ccccc23)=NO1` (stereo in doubt) [compound of Formula 1, (R)—N-((2S,3S)-2-(fluoromethyl)-2-hydroxy-5-oxotetrahydrofuran-3-yl)-5-isopropyl-3-(isoquinolin-1-yl)-4,5-dihydroisoxazol-5-carboxamide], in data set [1] (basic solvent pH 9.0 or higher, strong acidic solvent pH 1 or lower or specific solvent that can be freeze-dried), the solubility in solvent result is reported as “dissolves well”. In data set [1] (water), the solubility in water result is reported as “poorly soluble in water; also recorded: hardly soluble in water”.
As to `CC(C)[C@@]1(C(=O)N[C@@H](CC(=O)O)C(=O)CF)CC(c2nccc3ccccc23)=NO1` [compound of Formula 2], in the data set on caspase, the caspase inhibitory activity entry is “active form”.
Consider `CC(C)[C@@]1(C(=O)N[C@H](CC(=O)O)C(=O)CF)CC(c2nccc3ccccc23)=NO1` [compound of Formula 3], for which, in the data set on caspase, the caspase inhibitory activity result is on record as “does not show the caspase inhibitory activity”. The “production of compound of Formula 3 from compound of Formula 2” value in data set [2] (acidic solvent) was “hardly produced”; in data set [2] (neutral or more basic solvent), “rapidly produced”.
